Tests used:
[1] = test system: prim-AML ROS-low LSCs; experiment: In vitro viability of sorted ROS-low LSCs from primitive AML; type: cell-based, human; details: in vitro treatment
Method: (§1) FIG. 2 is a series of charts showing viability of sorted ROSlow LSCs from mono-AML (n=5) and prim-AML (n=7) after 24 hours in vitro treatment with venetoclax alone or in combination with a fixed dose of 1.5 μM azacitidine. Each data point was expressed as mean±SD of technical triplicates. All viability data were normalized to untreated control.
(§2) To understand if the lack of response by monocytic AML to VEN+AZA is driven by intrinsic mechanisms, VEN+AZA sensitivity was directly evaluated in vitro, where protection from extrinsic factors such as the microenvironment is minimal. For these experiments, a second cohort of AML specimens with sufficient material to allow for more robust in vitro experimentation was used (herein referred to as Research Cohort 2). Using the surface expression profile of CD117, CD11b, CD68 and CD64, the primitive or monocytic compartment was isolated for analysis (herein referred to as prim-AML or mono-AML, respectively). Prim-AML has the phenotype of CD117+/CD11b−/CD68−/CD64− and mono-AML is predominantly CD117−/CD11b+/CD68+/CD64+. The in vitro drug sensitivity of these populations is shown in FIG. 2 and closely correlates with relative responses observed for the Clinical Cohort.
(§3) The relative sensitivity of LSCs derived from primitive versus monocytic AML specimens was analyzed. […]

[2] = test system: mono-AML ROS-low LSCs; experiment: In vitro viability / cell death of sorted ROS-low LSCs from monocytic AML; type: cell-based, human; details: 24 hours in vitro treatment; FIG. 2, FIG. 3
Method: as §1
FIG. 3 is a series of bar graphs viability of three mono-AMLs from the Research Cohort 2 after 24 hours in vitro treatment with various single or combinations drugs.
as §2, with “The in vitro drug sensitivity of these populations is shown in FIG. 2 and closely correlates with relative responses observed for the Clinical Cohort.” left out
as §3

Row | Structure (SMILES) | sensitivity/resistance (viability) of prim-AML ROS-low LSCs [1] | sensitivity/resistance (viability) of mono-AML ROS-low LSCs [2]
1 | Nc1ncn([C@@H]2O[C@H](CO)[C@@H](O)[C@H]2O)c(=O)n1 [AZA, azacitidine] | sensitive | 
2 | COCCn1c2c([n+](Cc3cnccn3)c1C)C(=O)c1ccccc1C2=O [YM155] | highly resistant | sensitive
